Measured values from patent US8435975B2, “Steroidal esters of 17-oximino-5-androsten-3beta-ol” (Council of Scientific & Industrial Research, priority 2007, dated 2013).
Values joined by “and” are separate entries in the source; they are usually repeats but may differ in a detail not shown here. Identical values can stand only once.

What was measured:
[1] = test system: human prostate cancer cell line (DU-145); experiment: Growth inhibitory activity assay (MTT assay), in vitro antiproliferative activity; type: cell-based; conditions: DU-145 cells; for % growth inhibition (mean ± SEM) / inhibition at 5 µg/mL: 5.0 μg/ml; for % growth inhibition (mean ± SEM) / inhibition at 0.01 µg/mL / inhibition at 0.5 µg/mL / inhibition at 1 µg/mL / inhibition at 2 µg/mL / inhibition at 5 µg/mL: 48 hr; for antiproliferative activity (in words): 0.01-5.0 μg/ml; for inhibition at 0.01 µg/mL / inhibition at 0.5 µg/mL / inhibition at 1 µg/mL / inhibition at 2 µg/mL / inhibition at 5 µg/mL: Homo sapiens, DU-145, 48 h, read-out: % growth inhibition (mean ± SEM); for inhibition at 0.01 µg/mL: 0.01 μg/ml; for inhibition at 0.5 µg/mL: 0.5 μg/ml; for inhibition at 1 µg/mL: 1.0 μg/ml; for inhibition at 2 µg/mL: 2.0 μg/ml
Experimental: 1) In Vitro Antiproliferative Activity Against Human Prostate Cancer Cell Line (DU-145)
Compounds were screened for antiproliferative activity on human prostate cell line DU-145 at National Centre of Human Genome Studies and Research. Panjab University, Chandigarh. All the compounds (10 to 16), Finasteride and starting material (9) were tested at five different concentrations: 0.01, 0.5, 1.0, 2.0, and 5.0 μg/ml. Finasteride was the positive control in this growth inhibitory assay.
Growth Inhibitory Activity Assay (MTT Assay)
We investigated the effect of newly synthesized compounds on cell growth inhibition using MTT assay. This assay quantifies the viable cells by observing the reduction of tetrazolium salt, MTT to formazan crystals by the live cells. Based on the absorbance of the cell sample after the test is carried out, cell viable can be measured [Loveland, B. E.; Jones, T. G.; Mackay. I. R.; Vaillant, F.; Wang, Z. X.; Hertzog, P. J. Biochem. International 1992, 27, 501 and Wright, S. A.; Thomas, L. N.; Douglas, R. C.; Lazier, C. B.; Rittmaster, R. S. J. Clin. Invest. 1996, 98, 2558]. Cells were cultured at a density of 5×10^3 cells/well in 96 well plates at 37° C. in 5.0% CO2 atmosphere and were allowed to attach for 24 hr. The cells were treated in triplicate with graded concentration of sample and reference drug Finasteride at 37° C. for 48 hr. A 20 μl aliquot of MTT solution was added directly to all the appropriate wells. Following 4 hr of incubation at […], the media was removed and formazan crystals, which results from the reduction of MTT by active cell were dissolved in 100 μl DMSO and vigorously mixed to dissolve the reacted dye. The absorbance of each well was read on Elisa plate reader (Merck) at 570 nm. The spectrometer was calibrated to zero absorbance using culture medium without cells. The relative cell viability (%) related to control well containing cell culture medium without drug was calculated by [A]test/[A]control×100. % Growth Inhibition=[OD]control−[OD]test/[OD]control×100 Results: […]

5α-reductase = experiment: In vivo effect on serum testosterone level (5α-reductase inhibitory activity), ELISA; parameters: species or system Sprague Dawley rats; conditions: for Serum levels of Testosterone, T: Sprague Dawley male rats, intraperitoneal, Finasteride 40 mg/kg and equimolar dose of compounds, 6 hr after treatment; for effect on serum testosterone level (in words): rats, 6 hr post dose, compared to control
Experimental: Animals (Sprague Dawley male rats weighing 150-200 g) were divided into 3 groups; vehicle (control), Finasteride (standard), treated (test sample) and each group consist of 5 animals. Sprague Dawley rats were treated intraperitoneally with Finasteride 40 mg/kg and equimolar dose of compounds. After 6 hr of treatment, blood was withdrawn by cardiac puncture under diethyl ether anesthesia and serum was separated from cells by centrifugation. Plasma testosterone values were obtained by ELISA plate reader at […] and are given in ng/ml.
The aliquots of 50 μl of each of standards, control and unknown (serum samples) were added to Testosterone Antibody coated wells. 100 μl of HRP-testosterone conjugate was added to all the wells and the plates were shaken gently on a shaker for proper mixing of the reagents. Following 4 hr of incubation at 37° C., the incubation mixture was removed. The wells were washed with phosphate buffer for 5-6 times (200 μl each time), followed by addition of 100 μl of TMB/H2O2 substrate in each of the wells. The plates were further incubated at 37° C. for 20 minutes. At the end of incubation reaction was stopped by using 100 μl of 0.5 M H2SO4 as stopping reagent. The absorbance of each well was read on Elisa plate reader at 450 nm [Rassaie, M. J.; Kumari, G. L.; Pandey, P. K.; Gupta, N.; Kochupillai, N.; Grover, P. K. Steroids 1992, 57, 288 and Hosoda, H.; Yoshida, H.; Sakai, Y.; Miyairi, S.; Nambara, T. Chem. Pharm. Bull. 1980, 28, 3035]
Intact male rats (Sprague Dawley, 200-250 g) were used in the designed study in which various compounds were compared for in vivo 5α-reductase inhibitory potency, as judged by the their ability to attenuate the conversion of testosterone into dihydrotestosterone (DHT). […] The procedure measure T equally well, and method met all the requirement of precision, accuracy, sensitivity and selectivity.

[2] = In vitro cytotoxicity using mouse macrophages (acute toxicity), MTT assay; type: cell-based; conditions: both sexes, Balb C; mouse macrophages, from linear equation of MTT data; read-out: LC50 (concentration lethal to 50% population of cells)
Experimental: (§1) All steroids were dissolved in ethanol and diluted to appropriate concentration: 0.01, 0.5, 1.0, 2.0, 5.0 μg/ml from the two stock solution of 1 mg/ml and […]. Stocks were maintained at room temperature.
(§2) […] Approximately 1 ml of Phosphate buffer saline preincubated at 37° C. was injected into cavity. The abdomen was lavaged for 10 min and fluid along with macrophages were taken out using a syringe into polypropylene tube. The phosphate solution was spun at 800 rpm for 5-10 min and cells were resuspended in 1 ml RPMI media. Cell number was counted using haemocytometer.
(§3) Cells (mouse macrophages) were plated at a density of 5×10^3 cells/well in 96 plate at 37° C. in 5% CO2. Cells were exposed in graded concentration of compounds at designated various concentration. Each concentration was tested in triplicate wells. After 48 hr fresh MTT 20 μl (1 mg/ml) was added directly to all the wells and culture was incubated for 4 hr at 37° C. During this incubation, MTT was converted into a water insoluble formazan complex by metabolic activity of viable cells. Formazan crystal were taken and dissolved in 100 μl of DMSO, which give light pink colour. The absorbance of each well was read on Elisa plate reader (Merck) at 570 nm. The spectrometer was calibrated to zero absorbance using culture medium without cells. The relative cell viability (%) related to control well containing cell culture medium without drug was calculated by [A]test/[A]control×100. % Cell Viability=[A]test/[A]control×100 [A]test=absorbance test sample [A]control=absorbance control sample Results: LC50: Concentration of the Compound in μg/ml (μm), Lethal to 50% Population of Cells.
(§4) The assay quantifies the viable cells, after […] incubation of cells with five different concentrations.

[3] = test system: mouse macrophages (Balb C); experiment: as above; type: cell-based
Experimental: as §1, §2, §3, §4

[4] = both, Balb C, mouse, 48 h, 0.01 μg/ml
[5] = both, Balb C, mouse, 48 h, 0.5 μg/ml
[6] = both, Balb C, mouse, 48 h, 1 μg/ml
[7] = both, Balb C, mouse, 48 h, 2 μg/ml
[8] = both, Balb C, mouse, 48 h, 5 μg/ml

| SMILES | % growth inhibition (mean ± SEM) [1] [%] | antiproliferative activity (in words) [1] | inhibition at 0.01 µg/mL [1] [%] | inhibition at 0.5 µg/mL [1] [%] | inhibition at 1 µg/mL [1] [%] | inhibition at 2 µg/mL [1] [%] | inhibition at 5 µg/mL [1] [%] | Serum levels of Testosterone, T (5α-reductase) | effect on serum testosterone level (in words) (5α-reductase) | CC50 at 48 h [2] [µM] | % viable Cells (mean ± SEM) [3, 4] [%] | % viable Cells (mean ± SEM) [3, 5] [%] | % viable Cells (mean ± SEM) [3, 6] [%] | % viable Cells (mean ± SEM) [3, 7] [%] | % viable Cells (mean ± SEM) [3, 8] [%] | also measured |
| --- | --- | --- | --- | --- | --- | --- | --- | --- | --- | --- | --- | --- | --- | --- | --- | --- |
| C[C@]12CC[C@H](OC(=O)c3ccc(N)cc3)CC1=CC[C@@H]1[C@@H]2CC[C@]2(C)C(=NO)CC[C@@H]12 [Compound 14, 17-oximino-5-androsten-3β-yl 4-aminobenzoate] | 91.02 ± 1.25 | more potent than the reference Finasteride | 71.8 ± 4.24 | 62.1 ± 11.4 | 79.5 ± 7.76 | 83.9 ± 6.7 | > 90 | 1.19 ng/mL | increased activity | 29.4 | 85.75 ± 0.28 | 77.69 ± 0.38 | 76.80 ± 0.23 | 75.82 ± 0.33 | 72.82 ± 0.28 | – |
| C[C@]12CC[C@H](OC(=O)c3ccc(O)cc3)CC1=CC[C@@H]1[C@@H]2CC[C@]2(C)C(=NO)CC[C@@H]12 [Compound 15, 17-oximino-5-androsten-3β-yl 4-hydroxybenzoate] | 91.54 ± 0.19 | more potent than the reference Finasteride | 62.6 ± 2.46 | 76.9 ± 5.94 | 83.08 ± 0.75 | 91.4 ± 1.5 | > 90 | 0.73 ng/mL | – | 22 | 89.80 ± 2.95 | 81.02 ± 2.83 | 63.99 ± 0.91 | 56.88 ± 0.39 | 55.36 ± 0.19 | – |
| C[C@]12CC[C@H](OC(=O)COc3ccccc3)CC1=CC[C@@H]1[C@@H]2CC[C@]2(C)C(=NO)CC[C@@H]12 [Compound 16, 17-oximino-5-androsten-3β-yl phenoxyacetate] | – | – | 33.6 ± 7.66 | 24.2 ± 6.37 | 36.2 ± 9.85 | 76.5 ± 5.58 | 87.8 ± 1.11 | 0.85 ng/mL | Significant increase in level of serum testosterone level | 89 | – | – | – | – | – | % viable Cells (mean ± SEM) ([3]; mouse macrophages, 0.01 μg/ml): 80.79 ± 2.30%; % viable Cells (mean ± SEM) ([3]; mouse macrophages, 0.5 μg/ml): 78.32 ± 0.89%; % viable Cells (mean ± SEM) ([3]; mouse macrophages, 1.0 μg/ml): 77.04 ± 0.23%; % viable Cells (mean ± SEM) ([3]; mouse macrophages, 2.0 μg/ml): 77.31 ± 0.37%; % viable Cells (mean ± SEM) ([3]; mouse macrophages, 5.0 μg/ml): 77.37 ± 0.16%; toxicity to mouse macrophages (in words) ([3]; mouse macrophages, 0.01-5.0 μg/ml): non toxic to mouse macrophages |
| CC(C)(C)NC(=O)[C@H]1CC[C@H]2[C@@H]3CC[C@H]4NC(=O)C=C[C@]4(C)[C@H]3CC[C@]12C [Finasteride, reference compound] | 78.51 ± 4.63 | – | 5 ± 1.58 | 8.83 ± 8.4 | 16.5 ± 2.49 | 36 ± 8.95 | 78 | 1.26 ± 0.02 ng/mL and 1.26 ng/mL | – | 28.2 | 96.45 ± 0.36 | 94.20 ± 1.72 | 93.32 ± 0.59 | 81.18 ± 0.20 | 79.14 ± 0.312 | – |
